Reference: patent US20160030364A1, “Therapeutic Compositions and Uses Thereof” (MANUKA HEALTH NEW ZEALAND LIMITED, priority 2013, published 2016)

Key:
Type in all cases: cell-based
[1] = test system: human colon cancer cell line (HCT-116); assay: MTT anti-proliferative assay, HCT-116 (Examples 3-12); conditions: 200 μg/ml; for % inhibition / % stim. / Mean OD (570 nm): 48 hours; for inhibition at 200 µg/mL: Homo sapiens, HCT-116, 48 h
Experimental: (§1) 5-phenylpenta-2,4-dienoic acid was assessed for its ability to modulate the viability and proliferation of human colorectal adenocarcinoma cells (DLD-1); human colon cancer cell line (HCT-116); human gastric carcinoma cell line (NCI-N87); and human oesophageal squamous cell carcinoma cell line (KYSE-30) as assessed by the MTT assay. The positive control, 5-fluorouracil (5-FU) was included at three concentrations; in addition to an unsupplemented cell control as a negative control in the study. The 5-phenylpenta-2,4-dienoic acid was a genuine standard with chemical structure confirmed by NMR and MS.
(§2) The four human gastrointestinal carcinoma cell lines were revived from cryostorage and cultured in the presence of the test and reference samples. An MTT assay was then performed on the cultures to determine the effect of the samples on the cell viability and proliferation.
(§3) The test sample 5-phenylpenta-2,4-dienoic acid, and all other test samples in Examples 4-12 (except tectochrysln) were Initially dissolved in pure ethanol to a concentration of around 13.35 mg/ml. Tectochrysin was initially dissolved in triethylene glycol mono-methyl ether to the same concentration. Working solutions were then prepared from the stock solutions by dilution to 15% ethanol/Hanks Balanced Salt Solution (ETOH)/HBSS to a concentration of 2 mg/mL solids. In the assay the final concentration of the samples was 200 μg/ml with a final EtOH concentration of 1.5%. Final concentrations of test compounds and propolis prepared as above are as noted in Example 3.
(§4) • 1. Human colorectal adenocarcinoma cells (ATCC CCI-221, DLD-1)(ATCC, Bethesda, Md., USA) • 2. Human gastric carcinoma cells (ATCC CRL-5822, NCI-N87)(ATCC, Bethesda, Md., USA) • 3. Human oesophageal squamous cell carcinoma (ECACC, KYSE-30)(Sigma Aldrich, Auckland, NZ) • 4. Human colon carcinoma cells (ECACC HCT-116)(Sigma Aldrich, Auckland, NZ) • 5. Penicillin-streptomycin solution: 10000 units/ml penicillin, 10 mg/ml streptomycin in 0.9% NaCl (Sigma Cat #P-0781). Stored at −20° C. • 6. For DLD-1 cells: DMEM culture medium (Invitrogen Cat #12100-046). Stored at 4° C. • 7. For NCI-N87 cells: RPMI-1640 medium modified to contain 2 mM L-glutamine, 10 mM HEPES, 1 mM sodium pyruvate, 4500 mg/L glucose, and 1500 mg/L sodium bicarbonate (Sigma R6504). Stored at 4° C. • 8. For KYSE-410 cells: RPMI-1640 medium modified to contain 2 mM L-glutamine (Sigma R6504). Stored at 4° C. • 9. For HCT-116 cells: McCoy's 5A medium modified to contain 2 mM L-glutamine (Sigma M48792). Stored at 4° C. • 10. Trypsin-EDTA solution: 0.25% Trypsin/EDTA, Invitrogen Cat#15400054 (×10 in stock). • 11. Phosphate buffered saline (PBS) (Prepared by TBL). • 12. Hanks Balanced Salt Solution (HBSS). (GIBCO Cat No. 14185-052). Stored at 4° C. • 13. Foetal Bovine Serum (GIBCO Cat #10091-148). Stored at −20° C. • 14. MTT Reagent: 100 mg/vial, (SIGMA Cat. No. M-2128) dissolved in PBS at 10 mg/ml and stored at −20° C. 5 mg/ml MTT solution will be prepared in PBS and stored at 4° C. as working solution. • 15. MTT lysis buffer: 10% sodium dodecyl sulphate (SDS)/45% Dimethyl Formamide (20 g SDS will be dissolved in 100 ml of double-distilled water (DDW), and 90 ml of Dimethyl Formamide will be added to the SDS solution). The pH will be adjusted to 4.7 by glacial acetic acid, and DDW added up to a final volume of 200 ml. • 16. 5-Fluorouracil (5-FU), (Sigma Cat. No. F-6627). Three working solutions will be prepared at 19.5 μg/ml. 6.5 μg/ml and 1.95 μg/ml dissolved in 15% Ethanol/HBSS. Final concentrations will be 1.95 μg/ml (15 μM), 0.65 μg/ml (5 μM) and 0.195 μg/ml (1.5 μM).
(§5) The medium for the propagation of the each of the cells lines is given above. Each medium was prepared following the ATCC/ECACC instructions and supplemented with penicillin-streptomycin solution (10 ml per litre). FBS (at 10%) was added just before use.
• 1. […]

[2] = test system: human gastric carcinoma cell line (NCI-N87); assay: MTT anti-proliferative assay, NCI-N87 (Examples 3-12); conditions: 200 μg/ml; for % stim. / Mean OD (570 nm) / % inhibition: 48 hours; for inhibition at 200 µg/mL: Homo sapiens, NCI-N87, 48 h
Experimental: as §1, §2, §3, §4, §5
• 1. […]

[3] = test system: human oesophageal squamous cell carcinoma cell line (KYSE-30); assay: MTT anti-proliferative assay, KYSE-30 (Examples 3-13); conditions: Examples 3-12, 200 μg/ml, 48 hours; for inhibition at 200 µg/mL: Homo sapiens, KYSE-30, 48 h
Experimental: as §1, §2, §3, §4, §5
• 1. […]

[4] = test system: human colorectal adenocarcinoma cells (DLD-1); assay: MTT anti-proliferative assay, DLD-1 (Examples 3-12); conditions: 200 μg/ml; for % stim. / Mean OD (570 nm) / % inhibition: 48 hours; for inhibition at 200 µg/mL: Homo sapiens, DLD-1, 48 h
Experimental: as §1, §2, §3, §4, §5
• 1. […]

[5] = test system: human colorectal adenocarcinoma cells (DLD-1); assay: MTT proliferation assay, DLD-1 (Examples 1-2); conditions: Example 2, DLD-1, sample 200 μg/mL, 24 hours incubation; for inhibition at 200 µg/mL: Homo sapiens
Experimental: (§6) Test samples shown below in Table 2 were assessed for their ability to modulate the viability and proliferation of human colorectal adenocarcinoma cells (DLD-1) as assessed by the MTT assay. A positive control, 5-fluorouracil (5-FU) was included in addition to an unsupplemented cell control (negative control) in the study. The test samples were obtained by fractionation of propolis tincture.
as §6, with “study.” for “study. The test samples were obtained by fractionation of propolis tincture.”
Human colorectal adenocarcinoma epithelial cell lines were revived from cryostorage and cultured in the presence of the test and reference samples. The culture conditions for the cells were those described by the supplier of the cells (ATCC). An MTT assay was then performed on the cultures to determine the effect of the samples on the cell proliferation.
Working solutions were prepared by dissolving the test fractions in 15% ethanol (ETOH)/HBSS to a concentration of 2 mg/mL solids.
• 1. Human colorectal adenocarcinoma cells (ATCC CCI-221, DLD-1). • 2. Penicillin-streptomycin solution: 10000 units/mL penicillin, 10 mg/mL streptomycin in 0.9% NaCl (Sigma Cat #P-0781). Stored at −20° C. • 3. DMEM culture medium (Invitrogen Cat #12100-046) Stored at −20° C. • 4. Trypsin-EDTA solution: 0.25% Trypsin/EDTA, Invitrogen Cat#15400054 (×10 in stock). • 5. Phosphate buffered saline (PBS) (Prepared by TBL). • 6. Hanks Balanced Salt Solution (HBSS). (GIBCO Cat No. 14185-052). Stored at 4° C. • 7. Foetal Bovine Serum (GIBCO Cat #10091-148). Stored at −20° C. • 8. MTT Reagent: 100 mg/vial, (SIGMA Cat. No. M-2128) dissolved in PBS at 10 mg/mL and stored at −20° C. 5 mg/mL MTT solution were prepared in PBS and stored at 4° C. as working solution. • 9. MTT lysis buffer: 10% sodium dodecyl sulphate (SDS)/45% Dimethyl Formamide (20 g SDS was dissolved in 100 mL of double-distilled water (DDW), and 90 mL of Dimethyl Formamide added to the SDS solution). The pH was adjusted to 4.7 by glacial acetic acid, and DDW added up to a final volume of 200 mL. • 10. 5-Fluorouracil (5-FU), (Sigma Cat. No. F-6627). Two working solutions were prepared at 150 ng/mL and 75 ng/mL, dissolved in 15% Ethanol/HBSS. Final concentrations were 7.50 ng/mL and 3.75 ng/mL.
The medium for the propagation of the colorectal adenocarcinoma (DLD-1) cells was DMEM, supplemented with penicillin-streptomycin solution (10 mL per litre). FBS was added just before use to give 10% w/v.
• 1. The human colorectal adenocarcinoma cells (DLD-1) obtained from the American Type Culture Collection USA were revived from cryostorage. • 2. Following initial propagation using the media described above (see Medium Preparation), the culture was subcultured using the trypsin-EDTA as follows. The media was removed and 5 mL of the trypsin-EDTA solution added and incubated at 37° C. for 5 min or until all the cells had detached. The trypsin was neutralised by adding an equal volume of DMEM medium and the culture centrifuged at 300 g (1200 rpm) for 5 min at 4° C. • 3. The supernatant was decanted and the cell pellets resuspended in medium DMEM, FBS (10%), penicillin (100 units/mL), streptomycin (100 μg/mL). The cells were cultured at 37° C. in 5% CO2/95% air. • 4. After reaching confluence, the cells were detached using trypsin-EDTA and centrifuged as described in 2 above. • 5. The supernatants were discarded and the cells resuspended in DMEM and supplements as described in 3 above at 1.0×10^4 cells per mL. • 6. Into each well of three 96 well plates, 180 μl of the cells (1,800 cells/well) or medium was added. The plates were incubated at 5% CO2/95% air at 37° C. for 48 h which was sufficient to allow the cells to adhere. • 7. To each well, 20 μl of each, of the test samples or positive control was added. […]

[6] = listed as Pinobanksin 3-O-acetate

| Structure (SMILES) | % inhibition [1] [%] | % stim. [1] [%] | Mean OD (570 nm) [1] | % stim. [2] [%] | Mean OD (570 nm) [2] | % inhibition [3] [%] | % stim. [3] [%] | Mean OD (570 nm) [3] | % stim. [4] [%] | Mean OD (570 nm) [4] | inhibition at 200 µg/mL [5] [%] | Mean OD (570 nm) [5] | further results |
| --- | --- | --- | --- | --- | --- | --- | --- | --- | --- | --- | --- | --- | --- |
| O=C(O)C=CC=Cc1ccccc1 [5-phenylpenta-2,4-dienoic acid] | 36.43 | 0 | 0.3232 | 0 | 0.2537 | 37.55 | 0 | 0.3758 | 0 | 0.2329 | – | – | inhibition at 200 µg/mL [1]: 36.4%; inhibition at 200 µg/mL [2]: 42.6%; inhibition at 200 µg/mL [3]: 37.6%; inhibition at 200 µg/mL [4]: 43.5% |
| O=C(/C=C/c1ccc(O)c(O)c1)OCCc1ccccc1 [CAPE, Caffeic acid phenethyl ester] | – | – | – | – | – | – | – | – | – | – | 76 | – | – |
| O=C(O)/C=C/c1ccc(O)c(O)c1 [Caffeic acid] | – | – | – | – | – | – | – | – | – | – | 96.5 | 0.0113 | – |
| O=c1cc(-c2ccccc2)oc2cc(O)cc(O)c12 [Chrysin] | – | – | – | – | – | – | – | – | – | – | 61.9 | – | – |
| O=c1c(O)c(-c2ccccc2)oc2cc(O)cc(O)c12 [Galangin] | – | – | – | – | – | – | – | – | – | – | 56.5 | – | – |
| COc1cc(O)c2c(c1)OC(c1ccccc1)CC2=O (stereo not shown) [Pinocembrin 7-methyl ether] | – | – | – | – | – | – | – | – | – | – | – | 0.3151 | % inhibition [5]: 2.71%; % inhibition ([5]; listed as #38 Pinocembrin 7-methyl ether): 2.7% |
| O=C(O)/C=C/c1ccccc1 [Trans-Cinnamic acid] | – | – | – | – | – | – | – | – | – | – | 26.2 | 0.2390 | – |
| COc1ccc(/C=C/C(=O)OCc2ccccc2)cc1O [benzyl isoferulate] | 94.81 | 0 | 0.0264 | 0 | 0.0885 | 95.82 | 0 | 0.0251 | 0 | 0.0379 | – | – | inhibition at 200 µg/mL [1]: 94.8%; % inhibition [2]: 79.95%; inhibition at 200 µg/mL [2]: 80%; inhibition at 200 µg/mL [3]: 95.8%; % inhibition [4]: 90.81%; inhibition at 200 µg/mL [4]: 90.8% |
| CC(=O)O[C@H]1C(=O)c2c(O)cc(O)cc2O[C@@H]1c1ccccc1 [pinobanksin 3-O-acetate, pinobanksin-3-acetate] | 90.61 | 0 | 0.0477 | 0 | 0.2287 | 68.01 | 0 | – | 0 | – | – | – | % inhibition [1, 6]: 90.6%; % inhibition [2]: 48.22%; % inhibition [2, 6]: 48.2%; % inhibition [3, 6]: 68.0%; % inhibition [4, 6]: 75.4% |
| COc1cc(O)c(C(=O)/C=C/c2ccccc2)c(O)c1 [pinostrobin chalcone] | 51.2 | 0 | 0.2482 | 5.5 | 0.4659 | 45.0 | 0 | 0.3312 | 0 | 0.069 | – | – | % inhibition [4]: 83.3% |
